# Reference: patent publication US7759337B2, “Phthalazine compounds and methods of use” (Amgen Inc., priority 2005, dated 2010)
# System: production of TNF by monocytes activated with bacterial lipopolysaccharide (LPS)
# Assay: Lipopolysaccharide-activated monocyte TNF production assay
# Format: cell-based
# Details: Homo sapiens; whole blood monocyte assay (LPS induced TNF release)
# In short: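 Adherent human PBMC-derived monocytes preincubated 60 min with nine two-fold compound dilutions, then stimulated with E. coli K532 LPS (30 ng/mL in the added medium) for 4 h at 37 °C. Supernatant TNF measured by sandwich ELISA; IC50 is the compound concentration halving TNF production, from second-order polynomial fits.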
row,SMILES,IC50 [µM]
1,"Cc1ccc(C(=O)NC2CC2)cc1-c1ccc2c(N3C[C@@H](C)N(CC(F)(F)F)C[C@@H]3C)nncc2c1 [Example 393, N-cyclopropyl-3-{1-[(2S,5R)-2,5-dimethyl-4-(2,2,2-trifluoroethyl)piperazin-1-yl]phthalazin-6-yl}-4-methylbenzamide]",≤ 5
2,"Cc1ccc(C(N)=O)cc1-c1ccc2c(N3[C@H](C)CC[C@H]3C)nncc2c1 [Example 394, 3-{1-[(2R,5R)-2,5-dimethylpyrrolidin-1-yl]phthalazin-6-yl}-4-methylbenzamide]",≤ 5
3,"Cc1ccc(C(=O)NC2CC2)cc1-c1ccc2c(N3[C@H](C)CC[C@H]3C)nncc2c1 [Example 395, N-cyclopropyl-3-{1-[(2R,5R)-2,5-dimethylpyrrolidin-1-yl]phthalazin-6-yl}-4-methylbenzamide]",≤ 5
4,"CNc1noc2c(-c3ccc4c(-c5ccccc5C)nncc4c3)c(C)ccc12 [Example 396, N,6-dimethyl-7-[1-(2-methylphenyl)phthalazin-6-yl]-1,2-benzisoxazol-3-amine]",≤ 5
5,"CNc1noc2c(-c3ccc4c(N5CCOC[C@@H]5C)nncc4c3)c(C)ccc12 [Example 397, N,6-dimethyl-7-(1-((S)-3-methylmorpholino)phthalazin-6-yl)benzo[d]isoxazol-3-amine]",≤ 5
6,"Cc1ccccc1-c1ccc2c(N3CCOCC3c3ccc(F)cc3)nncc2c1 (stereo not drawn) [Example 398, 1-[3-(4-fluorophenyl)morpholin-4-yl]-6-(2-methylphenyl)phthalazine]",≤ 5
7,"CNc1noc2c(-c3ccc4c(N[C@@H](C)COC)nncc4c3)c(C)ccc12 [Example 399, N-[(1S)-2-methoxy-1-methylethyl]-6-[6-methyl-3-(methylamino)-1,2-benzisoxazol-7-yl]phthalazin-1-amine]",≤ 5
8,"C[C@H]1COCCN1c1nncc2cc(-c3c(Cl)ccc4c(NCC(F)(F)F)noc34)ccc12 [Example 400, 6-chloro-7-{1-[(3S)-3-methylmorpholin-4-yl]phthalazin-6-yl}-N-(2,2,2-trifluoroethyl)-1,2-benzisoxazol-3-amine]",≤ 5
9,"C[C@H]1COCCN1c1nncc2cc(-c3c(Cl)ccc4c(NC5CC5)noc34)ccc12 [Example 401, 6-chloro-N-cyclopropyl-7-{1-[(3S)-3-methylmorpholin-4-yl]phthalazin-6-yl}-1,2-benzisoxazol-3-amine]",≤ 5
10,"CC(C)Nc1noc2c(-c3ccc4c(N5CCOC[C@@H]5C)nncc4c3)c(Cl)ccc12 [Example 402, 6-chloro-N-isopropyl-7-{1-[(3S)-3-methylmorpholin-4-yl]phthalazin-6-yl}-1,2-benzisoxazol-3-amine]",≤ 5
11,"CC(=O)Nc1noc2c(-c3ccc4c(N5CCOC[C@@H]5C)nncc4c3)c(C)ccc12 [Example 403, N-(6-methyl-7-{1-[(3S)-3-methylmorpholin-4-yl]phthalazin-6-yl}-1,2-benzisoxazol-3-yl)acetamide]",≤ 5
12,"Cc1ccc(C(=O)NC(C)C)cc1-c1ccc2c(NC(C)C)nncc2c1 [Example 404, N-isopropyl-3-[1-(isopropylamino)phthalazin-6-yl]-4-methylbenzamide]",≤ 5
13,"Cc1ccc(C(=O)NC(C)C)cc1-c1ccc2c(N3CCOCC3)nncc2c1 [Example 405, N-isopropyl-4-methyl-3-(1-morpholin-4-ylphthalazin-6-yl)benzamide]",≤ 5
14,"Cc1ccc(C(N)=O)cc1-c1ccc2c(Oc3ccccc3)nncc2c1 [Example 406, 4-methyl-3-(1-phenoxyphthalazin-6-yl)benzamide]",≤ 5
15,"Cc1ccc(C(N)=O)cc1-c1ccc2c(NCCO)nncc2c1 [Example 407, 3-{1-[(2-hydroxyethyl)amino]phthalazin-6-yl}-4-methylbenzamide]",≤ 5
